20 compounds from US7888329B2, “Substituted aryl piperidinylalkynyladenosines as A2AR agonists” (PGxHealth, LLC, priority 2006, dated 2011) can be followed below.

pEC50, pKi: −log10 of the molar value. Read-outs that look alike come from different tables or passages of the source. Where only a bound is given, the exact number is not on record here.

In one assay the target is T1, human A1 AR (Homo sapiens, UniProt P30542).
T1 construct: expressed in transfected cells; membranes
T1 sequence (P30542 1-326): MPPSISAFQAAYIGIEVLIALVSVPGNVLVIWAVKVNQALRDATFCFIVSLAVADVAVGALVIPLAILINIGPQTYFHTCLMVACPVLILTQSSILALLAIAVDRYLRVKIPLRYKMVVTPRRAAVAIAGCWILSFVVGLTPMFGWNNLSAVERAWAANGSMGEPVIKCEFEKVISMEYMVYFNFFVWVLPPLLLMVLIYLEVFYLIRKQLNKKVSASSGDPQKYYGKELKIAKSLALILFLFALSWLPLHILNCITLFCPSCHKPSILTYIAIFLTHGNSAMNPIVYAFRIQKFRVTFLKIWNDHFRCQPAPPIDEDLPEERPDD
In words: Radioligand competition binding with 125I-ABA, membranes of CHO K1 cells stably expressing the receptor. As to conditions: Ki derived from IC50, class symbols.

For assay [1], the target named is T2, recombinant human A2A receptors (Homo sapiens, UniProt P29274).
T2 construct: expressed in transfected cells; host or cells: Sf9 insect cells infected with virus; membranes
T2 sequence (P29274 whole entry): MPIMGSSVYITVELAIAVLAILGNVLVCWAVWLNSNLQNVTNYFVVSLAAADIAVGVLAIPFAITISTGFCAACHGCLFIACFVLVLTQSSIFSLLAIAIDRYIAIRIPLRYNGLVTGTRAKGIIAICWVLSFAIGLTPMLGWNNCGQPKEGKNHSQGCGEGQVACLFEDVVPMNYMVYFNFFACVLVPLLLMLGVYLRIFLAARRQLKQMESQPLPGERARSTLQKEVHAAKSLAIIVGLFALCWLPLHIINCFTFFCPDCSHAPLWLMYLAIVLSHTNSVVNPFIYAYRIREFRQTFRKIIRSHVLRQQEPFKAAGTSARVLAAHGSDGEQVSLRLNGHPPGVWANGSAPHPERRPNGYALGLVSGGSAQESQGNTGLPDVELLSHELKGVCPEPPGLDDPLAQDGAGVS
Description: Radioligand competition binding with 125I-APE or 125I-ZM241385, Sf9 cell membranes. As to conditions: 125I-APE or 125I-ZM241385, Sf9 membranes; class symbols. The method in brief:
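Membranes (5 μg for A2A; 25 μg for A1) incubated with radioligand at room temperature, 3 h for agonists or 2 h for antagonists, in HE buffer with 1 U/mL adenosine deaminase and 5 mM MgCl2, ± 50 μM GTPγS. Assays ended by filtration; nonspecific binding defined with 50 μM NECA.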
(In a radioligand displacement assay an active substance lowers the binding of a labelled ligand.)

A further assay addresses T3, human A3 AR (Homo sapiens, UniProt P0DMS8).
T3 construct: expressed in transfected cells; membranes
T3 sequence (P0DMS8 1-318): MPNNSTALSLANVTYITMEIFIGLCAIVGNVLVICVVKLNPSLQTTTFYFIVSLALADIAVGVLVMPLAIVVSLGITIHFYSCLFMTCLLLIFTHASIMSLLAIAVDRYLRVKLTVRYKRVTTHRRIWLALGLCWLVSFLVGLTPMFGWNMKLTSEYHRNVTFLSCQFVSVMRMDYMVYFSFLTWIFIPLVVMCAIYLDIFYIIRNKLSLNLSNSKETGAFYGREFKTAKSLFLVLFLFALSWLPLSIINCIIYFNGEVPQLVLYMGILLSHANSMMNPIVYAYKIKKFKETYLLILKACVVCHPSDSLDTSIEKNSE
In words: Radioligand competition binding with 125I-ABA, membranes of HEK 293 cells stably expressing the receptor. The note with it: Ki derived from IC50, class symbols. The method in brief: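 Triplicate binding with 25 μg membrane protein and 0.5-1 nM agonist radioligand in HE buffer with 1 U/mL adenosine deaminase and 5 mM MgCl2, ±50 μM GTPγS, 3 h at room temperature, then filtration. Nonspecific binding with 50 μM NECA; Ki from IC50 corrected for radioligand and competitor depletion.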

The subject of assay [2] is Purified human neutrophils. In words: Luminol enhanced chemiluminescence (neutrophil oxidative activity), fMLP stimulated. The assay is classed as cell-based. The note with it: for pEC50: read-out: Functional; for EC50: read-out: Functional (nM).
The mark [3] stands for this setting: EC50 of peak chemiluminescence, human PMN, rolipram 100 nM, fMLP, three donors, class symbols.

`Nc1nc(C#CCC2CCN(C(=O)OCc3ccc([N+](=O)[O-])cc3)CC2)nc2c1ncn2[C@@H]1O[C@H](CO)[C@@H](O)[C@H]1O` [Compound 30, 2-{3-[1-((4-Nitro)benzyloxycarbanoyl)piperidin-4-yl]propyn-1-yl}adenosine]: the negative logarithm of the Ki (pKi) was more than 7.00 on human A1 AR, more than 8.00 in assay [1] and more than 7.00 on human A3 AR. The pEC50 in assay [2] (Homo sapiens, Neutrophil) is more than 8.00.
On to `CCNC(=O)[C@H]1O[C@@H](n2cnc3c(N)nc(C#CCC4CCN(C(=O)Oc5ccccc5Cl)CC4)nc32)[C@@H](O)C1O` (some centres unmarked) [Compound 31, N-Ethyl 2-{3-[1-(2-chlorophenyloxycarbonyl)-4-piperidinyl]-1-propyn-1-yl}adenosine-5′-uronamide], for which the pKi at human A1 AR is more than 7.00; in assay [1], more than 9.00; at human A3 AR, more than 8.00. Also, in assay [2] (Homo sapiens, Neutrophil), the pEC50 was more than 8.00.
With `CCNC(=O)[C@H]1O[C@@H](n2cnc3c(N)nc(C#CCC4CCN(C(=O)OCc5ccccc5)CC4)nc32)[C@@H](O)C1O` (some centres unmarked) [Compound 32, N-Ethyl 2-{3-[1-(benzyloxycarbonyl)-4-piperidinyl]-1-propyn-1-yl}adenosine-5′-uronamide, reference compound], the results for the negative logarithm of the Ki (pKi) (on human A1 AR; in assay [1]; on human A3 AR) were less than 7.00, more than 9.00 and more than 7.00, respectively. In assay [2] (Homo sapiens, Neutrophil), the pEC50 is more than 8.00.
For `CCNC(=O)[C@H]1O[C@@H](n2cnc3c(N)nc(C#CCC4CCN(C(=O)OCc5ccc([N+](=O)[O-])cc5)CC4)nc32)[C@@H](O)C1O` (some centres unmarked) [Compound 33, N-Ethyl 2-{3-[1-(4-nitrobenzyloxycarbonyl)-4-piperidinyl]-1-propyn-1-yl}adenosine-5′-uronamide] the same measures were more than 7.00, more than 9.00, more than 8.00 and more than 8.00.
For `CCNC(=O)[C@H]1O[C@@H](n2cnc3c(N)nc(C#CCC4CCN(C(=O)Oc5ccc(N)cc5)CC4)nc32)[C@@H](O)C1O` (some centres unmarked) [Compound 34, N-Ethyl 2-{3-[1-(4-aminophenoxycarbonyl)-4-piperidinyl]-1-propyn-1-yl}adenosine-5′-uronamide] the same measures were more than 7.00, more than 8.00, more than 7.00 and more than 9.00.
Taken in the same sequence, the figures for `Nc1nc(C#CCC2CCN(C(=O)Oc3ccccc3Cl)CC2)nc2c1ncn2[C@@H]1O[C@H](CO)[C@@H](O)[C@H]1O` [Compound 35, 2-{3-[1-((2-Chloro)phenoxycarbanoyl)piperidin-4-yl]propyn-1-yl}adenosine] were more than 7.00, more than 9.00, more than 7.00 and more than 8.00.
In the case of `COc1ccccc1OC(=O)N1CCC(CC#Cc2nc(N)c3ncn([C@@H]4O[C@H](CO)[C@@H](O)[C@H]4O)c3n2)CC1` [Compound 36, 2-{3-[1-((2-Methoxy)phenoxycarbanoyl)piperidin-4-yl]propyn-1-yl}adenosine], the results for the negative logarithm of the Ki (pKi) (at human A1 AR; in assay [1]; at human A3 AR) were more than 7.00, more than 9.00 and more than 7.00, respectively. Also, in assay [2] (Homo sapiens, Neutrophil), the pEC50 is more than 8.00.
For the compound `CCNC(=O)[C@H]1O[C@@H](n2cnc3c(N)nc(CCCC4CCN(C(=O)Oc5ccc(NO)cc5)CC4)nc32)[C@@H](O)C1O` (some centres unmarked) [Compound 37], the pKi at human A1 AR was more than 7.00; in assay [1] it was more than 9.00; on human A3 AR, more than 7.00. Also, the EC50 in assay [2] (Homo sapiens, Neutrophil) was less than 10 nM.
As to `Nc1nc(CCCC2CCN(C(=O)Oc3ccccc3)CC2)nc2c1ncn2[C@@H]1O[C@H](C(=O)NC2CC2)C(O)[C@@H]1O` (some centres unmarked) [Compound 38], the negative logarithm of the Ki (pKi) was less than 7.00 at human A1 AR, more than 7.00 in assay [1] and less than 7.00 on human A3 AR. In assay [2] (Homo sapiens, Neutrophil), the EC50 was less than 100 nM.
For the compound `Cc1ccc(OC(=O)N2CCC(CCCc3nc(N)c4ncn([C@@H]5O[C@H](C(=O)NC6CC6)C(O)[C@@H]5O)c4n3)CC2)cc1` (some centres unmarked) [Compound 39], the figures for the negative logarithm of the Ki (pKi) (at human A1 AR; in assay [1]; on human A3 AR) were less than 7.00, more than 7.00 and less than 7.00, respectively. The EC50 in assay [2] (Homo sapiens, Neutrophil) is less than 100 nM.
On to `N=C(Oc1ccc(F)cc1)N1CCC(CC#Cc2nc(N)c3ncn([C@@H]4O[C@H](C(=O)NC5CC5)[C@@H](O)[C@H]4O)c3n2)CC1` [Compound 41, N-Cyclopropyl 2-{3-[1-(4-fluorophenyloxycarboxymidyl)-4-piperidinyl]-1-propyn-1-yl}adenosine-5′-uronamide], for which the negative-log Ki (pKi) on human A1 AR was more than 7.00; in assay [1], more than 8.00; at human A3 AR, less than 7.00. In addition, the pEC50 in assay [2] (setting [3]) was more than 8.00.
Consider `N=C(Oc1ccc(Cl)cc1)N1CCC(CC#Cc2nc(N)c3ncn([C@@H]4O[C@H](C(=O)NC5CC5)[C@@H](O)[C@H]4O)c3n2)CC1` [Compound 42, N-Cyclopropyl 2-{3-[1-(4-chlorophenyloxycarboxymidyl)-4-piperidinyl]-1-propyn-1-yl}adenosine-5′-uronamide], for which the pKi on human A1 AR was less than 7.00; in assay [1] it was more than 8.00; at human A3 AR, less than 7.00. In addition, the pEC50 in assay [2] (setting [3]) is less than 7.00.
With `Nc1nc(C#CCC2CCN(C(=O)Nc3cccc(Cl)c3)CC2)nc2c1ncn2[C@@H]1O[C@H](C(=O)NC2CC2)C(O)[C@@H]1O` (some centres unmarked) [Compound 43, N-Cyclopropyl 2-{3-[1-(3-chlorophenyloxycarboxymidyl)-4-piperidinyl]-1-propyn-1-yl}adenosine-5′-uronamide], the pKi at human A1 AR was more than 7.00; in assay [1], more than 8.00; at human A3 AR it was less than 7.00. Moreover, the pEC50 in assay [2] (Homo sapiens, Neutrophil) was more than 7.00.
As for `Nc1nc(C#CCC2CCN(C(=O)Nc3ccc(F)cc3)CC2)nc2c1ncn2[C@@H]1O[C@H](CO)C(O)[C@@H]1O` (some centres unmarked) [Compound 44], the values for the pKi (on human A1 AR; in assay [1]; on human A3 AR) were more than 7.00, more than 8.00 and more than 7.00, respectively. The pEC50 in assay [2] (Homo sapiens, Neutrophil) was less than 7.00.
In the case of `Nc1nc(C#CCC2CCN(C(=O)Nc3ccc(Cl)cc3)CC2)nc2c1ncn2[C@@H]1O[C@H](CO)C(O)[C@@H]1O` (some centres unmarked) [Compound 45], the results for the negative-log Ki (pKi) (on human A1 AR; in assay [1]; at human A3 AR) were more than 7.00, more than 8.00 and more than 7.00, respectively. Also, the pEC50 in assay [2] (Homo sapiens, Neutrophil) is less than 7.00.
For `Nc1nc(C#CCC2CCN(C(=O)Nc3cccc(Cl)c3)CC2)nc2c1ncn2[C@@H]1O[C@H](CO)C(O)[C@@H]1O` (some centres unmarked) [Compound 46], the values for the pKi (at human A1 AR; in assay [1]; at human A3 AR) were more than 7.00, more than 8.00 and more than 7.00, respectively. Moreover, the pEC50 in assay [2] (Homo sapiens, Neutrophil) is more than 7.00.
Consider `Cc1ccc(OC(=O)N2CCC(CC#Cc3nc(N)c4ncn([C@@H]5O[C@H](C(=O)NC6CC6)[C@@H](O)[C@H]5O)c4n3)CC2)cc1C` [Compound 47, N-Cyclopropyl 2-{3-[1-(3,4-dimethylphenoxycarbonyl)-4-piperidinyl]-1-propyn-1-yl}adenosine-5′-uronamide], for which the pKi on human A1 AR was more than 7.00; in assay [1] it was more than 9.00; on human A3 AR, more than 7.00. The pEC50 in assay [2] (setting [3]) is more than 9.00.
As for `CCNC(=O)[C@H]1O[C@@H](n2cnc3c(N)nc(C#CCC4CCN(C(=O)Oc5ccc(Cl)c(Cl)c5)CC4)nc32)[C@@H](O)C1O` (some centres unmarked) [Compound 49, N-Ethyl 2-{3-[1-(3,4-dichlorophenoxycarbonyl)-4-piperidinyl]-1-propyn-1-yl}adenosine-5′-uronamide], the results for the pKi (on human A1 AR; in assay [1]; on human A3 AR) were more than 7.00, more than 9.00 and more than 8.00, respectively. Further, the pEC50 in assay [2] (Homo sapiens, Neutrophil) was more than 9.00.
For the compound `CCNC(=O)[C@H]1O[C@@H](n2cnc3c(N)nc(C#CCC4CCN(C(=O)Oc5ccc(F)c(F)c5)CC4)nc32)[C@@H](O)C1O` (some centres unmarked) [Compound 50, N-Ethyl 2-{3-[1-(3,4-difluorophenoxycarbonyl)-4-piperidinyl]-1-propyn-1-yl}adenosine-5′-uronamide], the negative logarithm of the Ki (pKi) at human A1 AR was more than 7.00; in assay [1], more than 9.00; on human A3 AR, more than 7.00. Moreover, in assay [2] (Homo sapiens, Neutrophil), the pEC50 is more than 9.00.
With `Nc1nc(C#CCC2CCN(C(=O)Oc3ccc(Cl)c(Cl)c3)CC2)nc2c1ncn2[C@@H]1O[C@H](C(=O)NC2CC2)C(O)[C@@H]1O` (some centres unmarked) [Compound 51, N-Cyclopropyl 2-{3-[1-(3,4-chlorophenoxycarbonyl)-4-piperidinyl]-1-propyn-1-yl}adenosine-5′-uronamide], the pKi is more than 7.00 on human A1 AR, more than 9.00 in assay [1] and more than 7.00 at human A3 AR. Moreover, the pEC50 in assay [2] (Homo sapiens, Neutrophil) is more than 9.00.

As usually defined, the pKi is −log10 of the Ki, conventionally taken in molar units.
